Data from patent US8993552B2, “Compositions and methods for treatment of leukemia” (The Regents of The University of Michigan, priority 2009, dated 2015).
Entries after “also recorded” stand apart in the source; their conditions may differ. Where two headings read alike, the source gives them in different places.

How the values were obtained:
Hep-G2 (liver) cell line = test: MTT viability assay, liver cell line
HK-2 (kidney) cell line = test: MTT viability assay, kidney cell line
[1] = tested on: human leukemia cell lines with MLL translocations (MV4;11, ML-2, KOPN-8, Karpas 45); test: ATP-based luminescence cell viability assay in MLL leukemia cell lines; settings: range over MLL leukemia cell lines
[2] = Solubility (stated in words); type: physicochemical; settings: relative to Compound 1, in words
MV4;11 cells (MLL-AF4) = test: Annexin V/PI staining flow cytometry
[3] = tested on: human leukemia cell lines with MLL translocations (MV4;11, KOPN-8, THP-1, MonoMac6); test: MTT viability assay in MLL leukemia cell lines; type: cell-based; settings: in words
Hoxa9 promoter = test: Luciferase reporter assay in HEK293 cells transfected with MLL-AF9
menin-MLL interaction [4] = target: T1, menin-MLL interaction (Homo sapiens (Human), UniProt O00255); test: Fluorescence polarization (FP) competition assay with fluorescein-labeled MLL peptide; type: binding;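 also: Read-out is fluorescence anisotropy of fluorescein-labeled MLL peptide bound to menin, inhibitors displace the peptide and lower anisotropy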
menin-MLL interaction [5] = target: T1, menin-MLL interaction; test: HTRF (TR-FRET) assay, His-tagged menin and biotinylated MLL peptide; type: binding; settings: Table 3
THP-1 leukemia cells = test: Differentiation of THP-1 cells, CD11b by flow cytometry; type: cell-based, human
Excerpt: Thienopyrimidine and benzodiazepine compounds induce differentiation of the MLL leukemia cells.

THP-1 cells (MLL-AF9) = test: Annexin V/PI staining flow cytometry
menin-MLL interaction [6] = target: T1, menin-MLL interaction; settings: 50 μM and 25 μM compound, vs DMSO control
[7] = tested on: Hoxa9 and Meis1 expression; test: qRT-PCR of MLL downstream targets in THP-1 cells
[8] = tested on: mouse bone marrow transduced with E2A-HLF; test: MTT viability assay, transduced mouse bone marrow (negative control); type: cell-based
[9] = tested on: non-MLL leukemia cell lines (Kasumi-1, ME-1); test: MTT viability assay in non-MLL leukemia cell lines; type: cell-based, human; settings: Kasumi-1 (AML1-ETO), ME-1 (CBFβ-SMMHC)
[10] = tested on: mouse bone marrow transduced with MLL-ENL; test: MTT viability assay, transduced mouse bone marrow; type: cell-based
Excerpt: (§1) Effects of thienopyrimidine compounds on mouse bone marrow transduced with MLL-AF9 and MLL-ENL.

[11] = tested on: mouse bone marrow transduced with MLL-AF9; test: MTT viability assay, transduced mouse bone marrow; type: cell-based
Excerpt: as §1

T1 sequence (O00255 whole entry): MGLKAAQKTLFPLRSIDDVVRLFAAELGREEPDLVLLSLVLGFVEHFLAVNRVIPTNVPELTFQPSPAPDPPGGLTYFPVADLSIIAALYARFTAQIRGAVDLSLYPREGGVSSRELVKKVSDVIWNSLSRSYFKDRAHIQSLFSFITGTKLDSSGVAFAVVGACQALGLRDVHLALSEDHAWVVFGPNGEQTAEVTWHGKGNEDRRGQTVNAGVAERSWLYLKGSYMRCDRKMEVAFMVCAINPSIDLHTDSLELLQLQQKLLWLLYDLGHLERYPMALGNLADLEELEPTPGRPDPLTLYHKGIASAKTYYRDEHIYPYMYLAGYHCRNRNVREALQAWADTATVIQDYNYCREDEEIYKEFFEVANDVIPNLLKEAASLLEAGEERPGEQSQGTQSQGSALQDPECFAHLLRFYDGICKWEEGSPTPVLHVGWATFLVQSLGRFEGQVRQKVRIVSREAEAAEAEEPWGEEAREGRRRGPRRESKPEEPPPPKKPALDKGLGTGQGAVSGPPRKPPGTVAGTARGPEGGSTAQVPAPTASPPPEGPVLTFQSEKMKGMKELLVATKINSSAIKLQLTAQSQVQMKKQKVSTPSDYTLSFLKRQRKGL

## CCc1cc2c(N3CCN(c4nnc(CC)s4)CC3)ncnc2s1 [Compound 4]
Hep-G2 (liver) cell line
  toxicity in viability assay: no substantial signs of toxicity
Hep-G2 (liver) cell line; listed as Compounds 4
  toxicity in viability assay: no signs of substantial toxicity
HK-2 (kidney) cell line
  toxicity in viability assay: no substantial signs of toxicity
HK-2 (kidney) cell line; listed as Compounds 4
  toxicity in viability assay: no signs of substantial toxicity
[1]
  GI50: 7 to 25 µM
[2]
  solubility: improved solubility

## CC(=O)N1c2ccccc2NC2=C(C(=O)CC(c3ccc(C(C)(C)C)cc3)C2)C1c1cccnc1 (centres unmarked) [Compound 32]
MV4;11 cells (MLL-AF4); 25 μM
  apoptotic cells: > 20%
  dead cells: > 20%
MV4;11 cells (MLL-AF4); 25 μM and 50 μM, in words
  induction of apoptosis and cell death: substantial apoptosis and cell death
Hep-G2 (liver) cell line
  toxicity in viability assay: no signs of substantial toxicity
[3]
  growth inhibition of MLL leukemia cells: substantial growth inhibition; also recorded: strongly inhibited growth
Hoxa9 promoter
  transactivation of the Hoxa9 promoter: effectively inhibit; also recorded: dose dependent inhibition
menin-MLL interaction [4]; Table 3, NA = no activity, read-out: IC50 in FP assay with FLSN-MLL
  IC50: 13 µM
menin-MLL interaction [4]; re-tested by FP and HTRF, read-out: IC50 for inhibition of the menin-MLL interaction
  IC50: 13 µM
HK-2 (kidney) cell line
  toxicity in viability assay: no signs of substantial toxicity
menin-MLL interaction [5]
  IC50: 7 µM
THP-1 leukemia cells
  expression of CD11b on the cell surface: increased expression of CD11b
THP-1 cells (MLL-AF9); 25 μM and 50 μM, in words
  induction of apoptosis and cell death: substantial apoptosis and cell death
THP-1 cells (MLL-AF9); 50 μM
  apoptotic cells: about 20%
  dead cells: > 40%
menin-MLL interaction [6]
  inhibition of the menin-MLL interaction in cells (co-IP): effectively inhibit

## CCCc1cc2c(N3CCN(C4=NCC(C)(C)S4)CC3)ncnc2s1 [Compound 70]
[3]
  growth inhibition of MLL leukemia cells: Very effective growth inhibition
[7]
  expression level of Hoxa9 and Meis1: Downregulation
THP-1 leukemia cells
  expression of CD11b on the cell surface: increased expression of CD11b
[8]
  inhibition of cell growth: no significant inhibition of cell growth
[9]
  effect on growth of non-MLL leukemia cell lines: no effect on the cell growth
menin-MLL interaction [6]
  inhibition of the menin-MLL interaction in cells (co-IP): effectively inhibit
[10]
  inhibition of cell growth: substantial inhibition of cell growth
[11]
  inhibition of cell growth: substantial inhibition of cell growth
